The source of these data is patent publication EP1897937A1, “Method of culturing NPCs” (NeuroProgen GmbH Leipzig, priority 2006, dated 2008).

Type in all cases: cell-based, human
In assay [1] the test system is hmNPCs. The experiment in a line: Long-term proliferation: number of living cells (hemocytometer, trypan blue exclusion). The procedure:
(§1) To determine long-term proliferation, hmNPCs were plated and expanded for 2 passages with or without addition of various agents (see below) to the custom expansion media containing the growth factors EGF and FGF2. Different fetal midbrain tissues were included in this study. At the end of the proliferation period, differentiation of hmNPCs was induced via replacement of expansion media with mitogen-free media containing 1% FCS, 5 µM forskoline (Sigma-Aldrich Chemie GmbH Munich, Germany), and 100 pg/ml IL-1β (Sigma). The differentiation and expansion media were supplemented with different drugs as appropriate. Prior to immunocytochemistry or protein extraction, hmNPCs were allowed to differentiate for 1 week. To determine short-term proliferation via Ki67 immunostaining, the cells were seeded into 24-well plates (70,000 cells/well) and left overnight to rest. P2 receptor agonists (ATP, UTP, ATP + UTP, ADP, ADPβS) were supplied daily for 5 consecutive days. Ki67/nestin double-positive cells were counted in 8 randomly selected fields of nucleotide-treated or untreated samples. For the assessment of MAPK phosphorylation the cells were kept free of mitogens for 2 d prior to addition of the MEK-inhibitor in expansion media. In addition, the MEK-inhibitor was added during the differentiation period 15 min before UTP administration.
(§2) UTP, UDP, ATP, ADP, ADPβS and suramin were purchased from Sigma (Sigma-Aldrich Chemie GmbH Munich, Germany). UTP and UDP were applied at different concentrations (1 µM, 10 µM, 100 µM), ATP at 100 µM, ADP at 100 µM, and ADPβS at100 µM. During expansion of the cells, the nucleotides were renewed once a week with every media change, unless otherwise stated. They were applied once at the beginning of the differentiation period. The P2 receptor antagonist suramin (10 µM) was added to expansion media 30 min prior to addition of UTP (100 µM). The stock solution of the MEK1/2 inhibitor U0126 (Promega Corporation, Mannheim, Germany) was prepared in dimethyl sulfoxide (DMSO) at a concentration of 10 mM. The stock solution was then diluted in 0.1 M PBS to obtain a concentration of 1 mM. MEK inhibitor (final concentration 10 µM) was added to mitogen-free expansion media, 15 min before UTP treatment (1 µM) of hmNPCs.
Cell counting of control (untreated) and treated hmNPCs was performed using a hemocytometer. Adherent cells were collected by detachment with accutase™ (PAA Laboratories, Pasching, Austria) for 10 min at 37°C. […] The number of total and trypan blue-positive cells was then determined by counting at least 300 cells per sample in a hemocytometer.

Assay [2] deals with hmNPCs. The experiment in a line: Dopaminergic differentiation: counting of TH-positive cells by immunocytochemistry. As to the method:
as §1, §2
Expanded or one week differentiated hmNPCs were fixed with 4% paraformaldehyde in PBS for 10 min at room temperature and washed with PBS, counterstained with the DNA-binding dye 4'-6-Diamidino-2-phenylindole (DAPI, 2 µg/ml in PBS) for 15 min at room temperature, washed twice in PBS followed by incubation in blocking buffer (10% FCS, 0.2% Triton-X 100 in PBS, pH 7.2) for 30 min at room temperature. After incubation with a primary antibody (over night at 4°C in blocking buffer), the cells were incubated with fluorescent secondary antibodies, Alexa Fluor® 488 conjugate or Alexa Fluor® 594 conjugate (Molecular Probes, Eugene, USA). Cover-slips were mounted onto glass slides and examined under a fluorescence microscope (Zeiss Axiovert 200). Acquisition of the cells was performed using the Image-analysis software AxioVision 4 (Carl Zeiss AG, Jena, Germany). The following primary antibodies were used for immunofluorescence: rabbit polyclonal anti-β-tubulin III (anti-Tuj1) antibody, rabbit polyclonal anti-tyrosine hydroxylase antibody , mouse monoclonal anti-nestin antibody (Pharmingen, San Diego, CA, USA), rabbit polyclonal anti-Ki67 antigen antibody (Novocastra Laboratories Ltd, Newcastle upon Tyne, UK). Estimation of the TH-positive cell numbers was performed by counting of cells among approximately 1000 differentiated cells in total within 6 randomly selected fields.

For assay [3], the system named is hmNPCs. The experiment in a line: Patch-clamp of voltage-gated potassium and sodium channels in differentiated cells. The settings on record: 100 µM; differentiation for 3 weeks. The procedure: Patch-clamp analyses of hmNPCs was carried out after in vitro differentiation for 3 weeks with or without 100 µM UTP at room temperature using an inverted microscope DMIL (Leica, Bensheim, Germany) and an EPC-9 amplifier (HEKA, Lambrecht, Germany). Recordings of voltage-gated potassium and sodium channels were obtained in the whole-cell voltage-clamp mode by stepwise depolarisations with increasing amplitudes from the holding potential of - 70mV to 50mV in steps of 10mV. Ligand-gated P2X-channels were investigated in the whole-cell voltage-clamp mode by rapid application of 300 µM ADP, ATP, and UTP with a SF-77B perfusion fast-step system (Warner Instruments Inc., Hamden, USA). Series resistance values were continuously measured during all recordings. The external bath solution contained (in mM): 142 NaCl, 1 CaCl2, 8 KCI, 6 MgCl2, 10 Glucose, and 10 HEPES (pH 7.4; 320 mOsm). Micropipettes were formed from thin-walled borosilicate glass (Science Products, Hofheim, Germany) with a Flaming Brown electrode puller P-97 (Sutter Instrument Co., Novato, USA) and a Micro Forge (Narishige, Tokio, Japan). […] Whole cell currents were low-pass filtered at 2-5 kHz, digitized at 10 kHz, and analyzed using PulseFit software (HEKA, Lambrecht, Germany) and Prism 4 (GraphPad Software Inc, San Diego, USA). Numerical data were expressed as mean ± SEM. […]
On the technique in general: In patch-clamp work, channel activity is measured electrically.

Like-named read-outs stand apart in the source and are kept apart here.

Take `O=c1ccn([C@@H]2O[C@H](COP(=O)(O)OP(=O)(O)OP(=O)(O)O)[C@@H](O)[C@H]2O)c(=O)[nH]1` [UTP, uridine 5'-triphosphate]: the “number of living cells” value in the assay on hmNPCs [1] (100 µM each, 2 weeks in expansion media, on coapplication ADP 30 min before UTP, 20160 min) was 110 ± 6%. The activity at 1 µM in the assay on hmNPCs [1] (Homo sapiens, 336 h, 1 µM, 2 passages (approximately 2 weeks of expansion), control 100 ± 5%, read-out: number of living cells as compared to controls) is 152 ± 6%; with hmNPCs [2] (Homo sapiens, 1 µM, 2 weeks of expansion and one week of differentiation, read-out: number of TH-positive cells), 211 ± 30%. Also, the “performance of proliferating hmNPCs grown without mitogens” value in the assay with hmNPCs [1] (without EGF and FGF2, 1 µM once in 5 days) was “performed slightly better”. In addition, the “contribution of TH-immunopositive cells to the total of Tuj1-immunopositive cells” value in the assay with hmNPCs [2] (100 µM, 2 weeks of expansion followed by 1 week of differentiation) was “increased”. Besides, the activity at 100 µM with hmNPCs [2] (Homo sapiens, 168 h, 100 µM each, once, only during the differentiation period of one week, read-out: number of TH-positive (dopaminergic) cells as compared to control) was 239 ± 27%; with hmNPCs [2] (Homo sapiens, 100 µM during proliferation and differentiation, read-out: number of TH-positive cells) it was 267 ± 20%. The “maximal potassium and sodium current amplitudes, treated vs untreated” value in the assay with hmNPCs [3] is on record as “no significant difference”.
